Test: xn = mol fraction of the nth substance listed

CC(C)CC(=O)CC(C)C + CCC(C)O
viscosity [mPa·s], 100 kPa
Settings	x1 = 0.0815	x1 = 0.157	x1 = 0.2356	x1 = 0.3483	x1 = 0.4431	x1 = 0.5526	x1 = 0.6467	x1 = 0.7381	x1 = 0.8512	x1 = 0.9337
293.15 K	2.84	2.17	1.64	1.1	0.8	0.61	0.59	0.66	0.78	0.87
298.15 K	2.36	1.82	1.36	0.88	0.63	0.47	0.45	0.54	0.69	0.81
303.15 K	2	1.54	1.15	0.73	0.5	0.37	0.35	0.44	0.61	0.75
308.15 K	1.69	1.33	0.99	0.64	0.44	0.31	0.27	0.36	0.56	0.72
313.15 K	1.42	1.11	0.85	0.55	0.39	0.27	0.24	–	0.51	0.66
318.15 K	1.23	0.99	0.77	0.5	0.35	0.22	0.19	0.27	0.47	0.62
323.15 K	1.11	0.91	0.72	0.46	0.3	0.17	0.15	0.23	0.42	0.57

O=C1CCCCC1 + CCC(C)O
298.15 K, 101 kPa
Settings	viscosity [mPa·s]
x1 = 0.1006	2.33
x1 = 0.209	1.9
x1 = 0.3005	1.66
x1 = 0.403	1.55
x1 = 0.4997	1.51
x1 = 0.6988	1.57
x1 = 0.8007	1.66
x1 = 0.8986	1.79

CC(=O)CC(C)C + CCCC(C)O
viscosity [mPa·s], 101.3 kPa
Settings	x1 = 0.1036	x1 = 0.2131	x1 = 0.3003	x1 = 0.3959	x1 = 0.5098	x1 = 0.5963	x1 = 0.6924	x1 = 0.7942	x1 = 0.9001
298.15 K	2.26	1.61	1.32	1.12	0.924	0.821	0.712	0.646	0.589
303.15 K	1.93	1.41	1.16	1.01	0.848	0.76	0.664	0.607	0.557
308.15 K	1.65	1.25	1.05	0.91	0.78	0.705	0.62	0.571	0.527
313.15 K	1.41	1.1	0.965	0.837	0.718	0.658	0.601	0.553	0.502

CC(C)CC(=O)CC(C)C + CCCC(C)O
viscosity [mPa·s], 100 kPa
Settings	x1 = 0.0794	x1 = 0.1627	x1 = 0.2381	x1 = 0.3487	x1 = 0.4381	x1 = 0.5619	x1 = 0.6565	x1 = 0.7364	x1 = 0.8517	x1 = 0.9341
293.15 K	3.12	2.32	1.78	1.18	0.84	0.58	0.51	0.55	0.71	0.85
298.15 K	2.63	1.94	1.43	0.89	0.62	0.43	0.4	0.47	0.66	0.81
303.15 K	2.24	1.68	1.21	0.76	0.52	0.34	0.32	0.41	0.6	0.76
308.15 K	1.89	1.41	1.05	0.66	0.44	0.27	0.24	0.33	0.52	0.7
313.15 K	1.55	1.17	0.87	0.55	0.37	0.22	0.19	0.28	0.46	0.64
318.15 K	1.28	0.98	0.75	0.49	0.32	0.18	0.16	0.24	0.42	0.59
323.15 K	1.09	0.84	0.65	0.42	0.26	0.14	–	0.2	0.38	0.53

C=C(C)[C@@H]1CC=C(C)CC1 + CCCCCC
298.15 K, 101.33 kPa
Settings	viscosity [mPa·s]
x2 = 0.0279	0.825
x2 = 0.0568	0.806
x2 = 0.113	0.759
x2 = 0.2079	0.686
x2 = 0.2991	0.622
x2 = 0.4219	0.549
x2 = 0.5543	0.477
x2 = 0.6701	0.421
x2 = 0.7542	0.386
x2 = 0.8966	0.334
x2 = 0.9273	0.326
x2 = 0.972	0.305

CC(C)CC(C)(C)C + CCCCCC
298.15 K, 101 kPa
Settings	viscosity [mPa·s]
x1 = 0.05688	0.3093
x1 = 0.1612	0.3278
x1 = 0.2742	0.3441
x1 = 0.3413	0.3538
x1 = 0.4585	0.373
x1 = 0.5556	0.3897
x1 = 0.6116	0.3995
x1 = 0.7348	0.4226
x1 = 0.7874	0.4329
x1 = 0.852	0.4445
x1 = 0.9128	0.4582
x1 = 0.9559	0.4674
x2 = 0.03385	0.484

O=C1CCCCC1 + CCCCCC
viscosity [mPa·s]
Settings	298.15 K	303.15 K	308.15 K
101 kPa, x1 = 0.0863	0.364	–	–
101 kPa, x1 = 0.2109	0.421	–	–
101 kPa, x1 = 0.3038	0.474	–	–
101 kPa, x1 = 0.4007	0.542	–	–
101 kPa, x1 = 0.463	0.598	–	–
101 kPa, x1 = 0.6023	0.773	–	–
101 kPa, x1 = 0.6701	0.833	–	–
101 kPa, x1 = 0.7991	1.185	–	–
101 kPa, x1 = 0.872	1.398	–	–
101.33 kPa, x1 = 0.1011	0.335	0.318	0.305
101.33 kPa, x1 = 0.2012	0.381	0.361	0.343
101.33 kPa, x1 = 0.3052	0.445	0.418	0.396
101.33 kPa, x1 = 0.4029	0.514	0.483	0.458
101.33 kPa, x1 = 0.5011	0.607	0.57	0.537
101.33 kPa, x1 = 0.6043	0.732	0.684	0.641
101.33 kPa, x1 = 0.7032	0.898	0.834	0.779
101.33 kPa, x1 = 0.8003	1.131	1.033	0.961
101.33 kPa, x1 = 0.8989	1.441	1.322	1.22

CC(=O)CC(C)C + CCCCCCC
298.15 K, 101 kPa
Settings	viscosity [mPa·s]
x1 = 0.1142	0.39
x1 = 0.2052	0.397
x1 = 0.3088	0.407
x1 = 0.4417	0.424
x1 = 0.5341	0.438
x1 = 0.6443	0.458
x1 = 0.7444	0.478
x1 = 0.8854	0.511

CC(C)CC(C)(C)C + CCCCCCC
101 kPa
Settings	viscosity [mPa·s]
293.15 K, x1 = 0.6	0.454
293.15 K, x1 = 0.8	0.473
298.15 K, x1 = 0.1802	0.4055
298.15 K, x1 = 0.2943	0.4133
298.15 K, x1 = 0.3739	0.4193
298.15 K, x1 = 0.4883	0.4269
298.15 K, x1 = 0.5806	0.4357
298.15 K, x1 = 0.6254	0.4399
298.15 K, x1 = 0.7244	0.4491
298.15 K, x1 = 0.799	0.4562
298.15 K, x1 = 0.8649	0.461
298.15 K, x1 = 0.9217	0.4665
298.15 K, x1 = 0.9641	0.4743
313.15 K, x1 = 0.2	0.343
313.15 K, x1 = 0.4	0.354
313.15 K, x1 = 0.6	0.366
313.15 K, x1 = 0.8	0.38

CCCCCCO + CCCCCCC
viscosity [mPa·s], 101.33 kPa
Settings	x1 = 0.0567	x1 = 0.1134	x1 = 0.2217	x1 = 0.3279	x1 = 0.4307	x1 = 0.5294	x1 = 0.6292	x1 = 0.7248	x1 = 0.8643	x1 = 0.9526
298.15 K	0.4405	0.4541	0.5473	0.6831	0.8745	1.142	1.523	2.047	2.93	3.788
308.15 K	0.396	0.4021	0.4788	0.5863	0.7378	0.9541	1.201	1.574	2.299	2.921

O=C1CCCCC1 + CCCCCCC
viscosity [mPa·s]
Settings	298.15 K	303.15 K	308.15 K
101 kPa, x1 = 0.1125	0.437	–	–
101 kPa, x1 = 0.2097	0.484	–	–
101 kPa, x1 = 0.3055	0.539	–	–
101 kPa, x1 = 0.4144	0.616	–	–
101 kPa, x1 = 0.5033	0.702	–	–
101 kPa, x1 = 0.5928	0.803	–	–
101 kPa, x1 = 0.7027	0.97	–	–
101 kPa, x1 = 0.8091	1.184	–	–
101 kPa, x1 = 0.8686	1.34	–	–
101.33 kPa, x1 = 0.1046	0.427	0.403	0.384
101.33 kPa, x1 = 0.2024	0.472	0.445	0.421
101.33 kPa, x1 = 0.3035	0.529	0.497	0.47
101.33 kPa, x1 = 0.4016	0.606	0.564	0.53
101.33 kPa, x1 = 0.5025	0.69	0.644	0.605
101.33 kPa, x1 = 0.5993	0.805	0.75	0.701
101.33 kPa, x1 = 0.7026	0.96	0.893	0.828
101.33 kPa, x1 = 0.8009	1.178	1.085	1.004
101.33 kPa, x1 = 0.9009	1.474	1.349	1.235
